Reference: US20230303483A1, “USE OF STROBILURIN TYPE COMPOUNDS FOR COMBATING PHYTOPATHOGENIC FUNGI CONTAINING AN AMINO ACID SUBSTITUTION F129L IN THE MITOCHONDRIAL CYTOCHROME B PROTEIN CONFERRING RESISTANCE TO QO […]” (BASF SE, priority 2020, published 2023)

Key:
[1] = system: Phakopsora pachyrhizi (strain containing the amino acid substitution F129L in the mitochondrial cytochrome b protein); test: Use example 1: protective control of soybean rust on soybeans (PHAKPA P2), inoculation 2 days after spraying; format: in vivo; details: % diseased leaf area on soybean, 16 ppm spray, inoculation 2 days after treatment, untreated controls usually >85 %
Experimental: (§1) The compound was dissolved in a mixture of acetone and/or dimethylsulfoxide and the wetting agent/emulsifier Wettol, which is based on ethoxylated alkylphenoles, in a ratio (volume) solvent-emulsifier of 99 to 1 to give a total volume of 5 ml. Subsequently, water was added to total volume of 100 ml. This stock solution was then diluted with the described solvent-emulsifier-water mixture to the final concentration given in the table below.
Use example 1. Protective control of soybean rust on soybeans caused by Phakopsora pachyrhizi (PHAKPA P2)
(§2) Leaves of potted soybean seedlings were sprayed to run-off with the previously described spray solution, containing the concentration of active ingredient or their mixture as described below. The plants were allowed to air-dry. The trial plants were cultivated for 2 days in a greenhouse chamber at 23-27° C. and a relative humidity between 60 and 80 %. Then the plants were inoculated with spores of Phakopsora pachyrhizi. The strain used contains the amino acid substitution F129L in the mitochondrial cytochrome b protein conferring resistance to Qo inhibitors. To ensure the success the artificial inoculation, the plants were transferred to a humid chamber with a relative humidity of about 95 % and 20 to 24° C. for 24 hr. The trial plants were cultivated for up to 14 days in a greenhouse chamber at 23 to 27° C. and a relative humidity between 60 and 80 %. The extent of fungal attack on the leaves was visually assessed as % diseased leaf area, the disease level of untreated controls was usually higher than 85 %.
(§3) All test results below are given for the control of phytopathogenic fungi containing the amino acid substitution F129L in the mitochondrial cytochrome b protein conferring resistance to Qo inhibitors.

[2] = system: Phakopsora pachyrhizi (strain containing the amino acid substitution F129L in the mitochondrial cytochrome b protein); test: Use example 2: protective control of soybean rust on soybeans (PHAKPA P6), inoculation six days after spraying; format: in vivo; details: % diseased leaf area on soybean, 16 ppm spray, inoculation six days after treatment, untreated controls usually >85 %
Experimental: as §1
Use example 2. Protective control of soybean rust on soybeans caused by Phakopsora pachyrhizi (PHAKPA P6)
as §2, with “active ingredient as described” for “active ingredient or their mixture as described”, “cultivated for six days in” for “cultivated for 2 days in”, “% and 23 to 27°” for “% and 20 to 24°”, “23 to 27° C. for” for “20 to 24° C. for”
as §3

Structure (SMILES)	PHAKPA Disease level (%) P2 at 16 ppm [1] [%]	PHAKPA Disease level (%) P6 at 16 ppm [2] [%]
CO/N=C(/C(=O)OC)c1ccccc1CO/N=C(\C)C#Cc1ccc(OC2CC2)cc1 [Example 102]	80	63
CO/N=C(/C(=O)OC)c1ccccc1CO/N=C(\C)C#Cc1cccc2c1OC(F)(F)O2 [Example 103]	28	22
CNC(=O)/C(=N/OC)c1ccccc1CO/N=C(\C)C#Cc1ccc(OCC(F)(F)F)cc1 [Example 104]	53	32
CNC(=O)/C(=N/OC)c1ccccc1CO/N=C(\C)C#Cc1ccc(OC2CC2)cc1 [Example 106]	23	13
CNC(=O)/C(=N/OC)c1ccccc1CO/N=C(\C)C#Cc1c(Cl)cccc1Cl [Example 107]	27	15
CO/N=C(/C(=O)OC)c1ccccc1CO/N=C(\C)C#Cc1c(C2CC2)cccc1C(F)(F)F [Example 108]	90	87
CO/N=C(/C(=O)OC)c1ccccc1CO/N=C(\C)C#Cc1ccc(Cl)cc1C(C)C [Example 109]	11	12
CNC(=O)/C(=N/OC)c1ccccc1CO/N=C(\C)C#Cc1ccc(Cl)cc1C(C)C [Example 110]	0	2
CNC(=O)/C(=N/OC)c1ccccc1CO/N=C(\C)C#Cc1ccc(Oc2ccc(F)cc2)cc1 [Example 111]	33	23
CNC(=O)/C(=N/OC)c1ccccc1CO/N=C(/C#Cc1ccc(Cl)cc1)COC [Example 112]	38	25
COC/C(C#Cc1ccc(Cl)cc1)=N\OCc1ccccc1/C(=N\OC)C(=O)OC [Example 113]	87	77
CO/C=C(/C(=O)OC)c1ccccc1CO/N=C(\C)C#Cc1ccc(F)cc1 [Example 114]	0	0
CNC(=O)/C(=N/OC)c1ccccc1CO/N=C(\C)C#Cc1ccc(Cl)cc1-c1ccc(F)cc1 [Example 115]	2	1
CO/N=C(/C(=O)OC)c1ccccc1CO/N=C(\C)C#Cc1ccc(Cl)cc1-c1ccc(F)cc1 [Example 118]	3	4
CNC(=O)/C(=N/OC)c1ccccc1CO/N=C(\C)C#Cc1c(C2CC2)cccc1C(F)(F)F [Example 119]	77	77
CNC(=O)/C(=N/OC)c1ccccc1CO/N=C(\C)C#Cc1ccc(OC(F)(F)F)cc1C1CC1 [Example 120]	15	22
CO/N=C(/C(=O)OC)c1ccccc1CO/N=C(\C)C#Cc1ccc(OC(F)(F)F)cc1C1CC1 [Example 121]	87	53
CO/C=C(/C(=O)OC)c1cccc(C)c1CO/N=C(\C)C#Cc1ccc(F)c(C(=O)OC)c1 [Example 122]	73	60
CO/N=C(/C(=O)OC)c1cccc(C)c1CO/N=C(\C)C#Cc1ccc(F)c(C(=O)OC)c1 [Example 123]	43	37
CO/C=C(/C(=O)OC)c1cccc(C)c1CO/N=C(\C)C#Cc1ccc(F)cc1C(=O)OC [Example 124]	14	53
CO/N=C(/C(=O)OC)c1cccc(C)c1CO/N=C(\C)C#Cc1ccc(F)cc1C(=O)OC [Example 125]	17	45
CO/N=C(/C(=O)OC)c1cccc(C)c1CO/N=C(\C)C#Cc1ccc(F)cc1C(=O)OC [Example 127]	53	47
